In patent US6225478A, “Iridoid derivatives and neovascularization inhibitors containing the same as active ingredient” (Tsumura & Co., priority 1999, dated 2001):
Converted amounts (≈) assume the structure as drawn.

How the values were obtained:
Type in all cases: cell-based
[1] = test system: human umbilical-vein endothelial cells (HUVEC); assay: Tube Formation Assay (TFA) Test, HUVEC in collagen gel; settings: 20 hours, 40% or less judged remarkable; for inhibition at 1 µg/mL / inhibition at 10 µg/mL: Homo sapiens, HUVEC, 20 h, read-out: TFA (inhibition rate, %)
Summary of the method: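 HUVEC (7th subculture, 1×10^5 cells/ml) attached to collagen gel for 2 h at 37 °C, given sample and overlaid with collagen, then cultured 20 h at 37 °C, 5% CO2 in M-199 with 20% FCS, 30 ng/ml b-FGF and 0.1 μM PMA. Tube length measured by image analysis; % inhibition relative to positive and negative controls.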

[2] = test system: human umbilical-vein endothelial cells (HUVEC); assay: Cell Migration Assay (CMA) Test, HUVEC (% relative to control); settings: 24 hours, 60% or less = remarkable inhibition; for activity at 1 µg/mL / activity at 10 µg/mL: Homo sapiens, HUVEC, read-out: CMA (% relative to control)
Summary of the method: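 Confluent 7th-subculture HUVEC monolayers scraped with razor blade, then given M199 (2+) plus 40 or 4 μl of 1 mg/ml sample (in 5% DMSO-PBS) per 4.0 ml medium for 24 h at 37 °C. Methanol-fixed, Giemsa-stained; newly migrated cells counted microscopically in 1 mm×1 mm blocks, expressed versus M199 (2+) control.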

[3] = test system: human umbilical-vein endothelial cells (HUVEC); assay: Cell Proliferation Assay (CPA) Test, HUVEC, MTT; settings: M199 (2+) medium; for IC50: Homo sapiens, read-out: CPA (IC50 μg/ml)
Summary of the method: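 HUVEC (7th subculture) seeded at 5×10^4 cells/ml in M-199 with 20% FCS, 10 ng/ml b-FGF and 10 ng/ml EGF, grown 24 h at 37 °C, 5% CO2. Compounds added from 1 mg/ml or 0.1 mg/ml samples in 5% DMSO-PBS(−), renewed with medium after 24 h, then cultured 48 h more. Read-out by MTT with 4 h incubation and SDS/HCl stop.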

For `COC(=O)C1=CO[C@@H](OC(=O)Nc2ccccc2)[C@@H]2[C@@H]1C[C@@H]1O[C@]21C` [compound 35, (1S,4aS,6S,7R,7aR)-6,7-epoxy-1,4a,5,6,7,7a-hexahydro-7-methyl-1-(phenylcarbamoyloxy) cyclopenta [c] pyrane-4-carboxylic acid methylester], the inhibition at 1 µg/mL ([1]; 1 μg/ml) was -3.3%, the inhibition at 10 µg/mL ([1]; 10 μg/ml) was 20% and the activity at 1 µg/mL ([2]; 1 μg/ml) was 84.4%. The activity at 10 µg/mL ([2]; 10 μg/ml) was 67.2% and the IC50 [3] was over 100 µg/mL.

For `CNC(=O)O[C@@H]1OC=C(C(=O)OC)[C@H]2C[C@@H]3OC3(COC(=O)OC)C12` (stereo in doubt) [compound 47, (1S,4aS,6S,7R,7aR)-6,7-epoxy-7-(methoxycarbonyloxymethyl)-1-(methylcarbamoyloxy)-1,4a,5,6,7,7a-hexahydrocyclopenta [c] pyrane-4-carboxylic acid methylester], the inhibition at 1 µg/mL ([1]; 1 μg/ml) was -27.3%, the inhibition at 10 µg/mL ([1]; 10 μg/ml) was 2.6% and the activity at 1 µg/mL ([2]; 1 μg/ml) was 95.9%. For the same compound, the activity at 10 µg/mL ([2]; 10 μg/ml) was 60.5% and the IC50 [3] was over 100 µg/mL.

`CNC(=O)OC[C@@H]1[C@@H](C)CC[C@@H]1C1(COC(=O)NC)CO1` (stereo partly drawn) [Compound 59, 2-[(1S,2R,3S)-2-(methylcarbamoyloxy)methyl-3-methylcyclopento-1-yl]-2,3-epoxy-propane-1-methylcarbamate] was tested, and the “TFA (inhibition rate, %)” value ([1]; 1 μg/ml) was 5.9%, the “TFA (inhibition rate, %)” value ([1]; 10 μg/ml) was -4.5% and the “CMA (% relative to control)” value ([2]; 1 μg/ml) was 99.3%. For the same compound, the “CMA (% relative to control)” value ([2]; 10 μg/ml) was 92.5% and the “CPA (IC50 μg/ml)” value [3] was over 100.0 µg/mL.

For `CNC(=O)OC1OC=C(C(=O)N2CCCC2)C2CC3OC3(C)C12` [compound 25, (1S,4aS,6S,7R,7aR)-6,7-epoxy-1,4a,5,6,7,7a-hexahydro-7-methyl-1-(methylcarbamoyloxy) cyclopenta [c]-pyrane-4-carboxylic acid pyrrolidylamide], the inhibition at 1 µg/mL ([1]; 1 μg/ml) was 31.8%, the inhibition at 10 µg/mL ([1]; 10 μg/ml) was 14.5% and the activity at 1 µg/mL ([2]; 1 μg/ml) was 91.8%. It also gave an activity at 10 µg/mL ([2]; 10 μg/ml) of 87.5% and an IC50 [3] of over 100 µg/mL.

Compound `CCN(CC)C(=O)C1=CO[C@@H](OC(=O)NC)[C@@H]2[C@@H]1C[C@@H]1O[C@]21C` [compound 19, (1S,4aS,6S,7R,7aR)-6,7-epoxy-1,4a,5,6,7,7a-hexahydro-7-methyl-1-(methylcarbamoyloxy) cyclopenta [c]-pyrane-4-carboxylic acid diethylamide] has an inhibition at 1 µg/mL ([1]; 1 μg/ml) of 23.6%, an inhibition at 10 µg/mL ([1]; 10 μg/ml) of 21.3% and an activity at 1 µg/mL ([2]; 1 μg/ml) of 96.4%. The activity at 10 µg/mL ([2]; 10 μg/ml) was 93.5% and the IC50 [3] was over 100 µg/mL.

Work on `CNC(=O)O[C@@H]1OC=C(C(=O)OC)[C@H]2CC[C@@]3(CO3)[C@@H]12` [compound 52, (1S,4aS,7R,7aR)-1-(methylcarbamoyloxy)-1,4a,5,6,7,7a-hexahydrospiro [cyclopenta [c]pyrane-7(1H),2'-oxirane]-4-carboxylic acid methylester] yielded an inhibition at 1 µg/mL ([1]; 1 μg/ml) of 21.7%, an inhibition at 10 µg/mL ([1]; 10 μg/ml) of -6.5% and an activity at 1 µg/mL ([2]; 1 μg/ml) of 101%. It also gave an activity at 10 µg/mL ([2]; 10 μg/ml) of 103% and an IC50 [3] of over 100 µg/mL.

`CCCCCCOC(=O)C1=CO[C@@H](OC(=O)NC)[C@@H]2[C@@H]1C[C@@H]1O[C@]21C` [compound 5, (1S,4aS,6S,7R,7aR)-6,7-epoxy-1,4a,5,6,7,7a-hexahydro-7-methyl-1-(methylcarbamoyloxy) cyclopenta [c]-pyrane-4-carboxylic acid n-hexylester] showed an inhibition at 1 µg/mL ([1]; 1 μg/ml) of 20.8%, an inhibition at 10 µg/mL ([1]; 10 μg/ml) of 34.5% and an activity at 1 µg/mL ([2]; 1 μg/ml) of 98.6%. The activity at 10 µg/mL ([2]; 10 μg/ml) was 82% and the IC50 [3] was 44.9 µg/mL (≈ 127 µM).

In the case of `CNC(=O)OCC12O[C@H]1C[C@@H]1C(C(=O)OC)=CO[C@@H](OC(=O)NC)C12` (stereo in doubt) [compound 48, (1S,4aS,6S,7R,7aR)-6,7-epoxy-1-(methylcarbamoyloxy)-7-(methylcarbamoyloxymethyl)-1,4a,5,6,7,7a-hexahydrocyclopenta [c] pyrane-4-carboxylic acid methylester], the inhibition at 1 µg/mL ([1]; 1 μg/ml) was 51.5%, the inhibition at 10 µg/mL ([1]; 10 μg/ml) was 54.1% and the activity at 1 µg/mL ([2]; 1 μg/ml) was 93.3%. For the same compound, the activity at 10 µg/mL ([2]; 10 μg/ml) was 107% and the IC50 [3] was over 100 µg/mL.
